{
  "source": "patent US7915285B2",
  "about": "“Method for treating drug and behavioral addictions” (priority 2005, dated 2011)",
  "key": {"[1]": {"system": "nucleus accumbens dopamine", "experiment": "Nucleus accumbens dopamine microdialysis after 5 days of morphine and ibudilast (Example 6)", "assay_type": "in vivo, rat", "details": "for nucleus accumbens dopamine levels: 7.5 mg/kg", "procedure": "Pathogen-free adult male Sprague-Dawley rats were used in all experiments. Rats (300-325 g at the time of arrival; Harlan Labs, Madison, Wis.) were housed in temperature (23±3° C.) and light (12:12 light:dark; lights on at 0700 hours) controlled rooms with standard rodent chow and water available ad libitum. All procedures were approved by the Institutional Animal Care and Use Committee at the University of Colorado at Boulder. Upon arrival male Sprague Dawley rats (300-400 g) were housed in pairs and allowed to acclimatize to the animal colony for one week. 5×90 minute sessions of handling by investigators and animal acclimatization to the microdialysis environment were performed during the following week.\nMicrodialysis guide cannula implantation was performed under halothane anaesthesia. CMA 12 guide cannulae (CMA Microdialysis) were aimed at either the right or left nucleus accumbens (AP=+1.7, LM=±0.8, DV=−6.0) in a counterbalanced fashion. Coordinates were from bregma using the atlas of Paxinos and Watson (1998). The guide cannulae and a tether screw (CMA Microdialysis) were anchored to the skull with three jeweler's screws and dental cement. Rats were individually housed after surgery and allowed to recover for one week.\nAnimals then began a 7 day dosing regimen (groups of 6 animals at a time, n=10 per treatment group). […] Body weights were recorded prior to each dosing session to allow for accurate dose calculations and to track the opioid induced weight loss.\nMicrodialysis probes (CMA 12, MW cut-off 20,000 Da, 2 mm active membrane) were inserted into the guide cannulae and rats were placed in separate Plexiglas infusion bowls with food and water available ad libitum. […] Dialysates were analyzed by HPLC within 2 weeks of collection.\nDopamine in the dialysates was determined using an ESA 5600A COULARRAY detector with an ESA 5014B analytical cell and an ESA 5020 guard cell connected to an ESA HR80 column (C18, […], 80×3 mm) which was maintained at 30° C. […] Quantitative comparisons were made with external standards (Sigma-Aldrich, St Louis, Mo.) that were run each day. […]"}, "[2]": {"system": "naloxone-precipitated morphine withdrawal syndrome", "experiment": "Rat model of naloxone-precipitated morphine withdrawal, total withdrawal score (Example 2)", "assay_type": "in vivo", "procedure": "(§1) Drug stability and concentration were validated by HPLC/MS/MS.\n(§2) Pathogen-free adult male Sprague-Dawley rats (280-350 g; Harlan Labs) were used in all experiments. Rats were housed in temperature (23+/×3° C.) and light (12:12 light: dark; lights on at 0700 hr) controlled rooms with standard rodent chow and water available ad libitum. Behavioral testing was performed during the light cycle. Approval of the Institutional Animal Care and Use Committee at University of Colorado was obtained for all procedures.\nThe schedule for morphine treatment (via subcutaneous injections) was as follows: Day 1: 5 mg/kg at 1000 hr, 5 mg/kg at 1300 hr, 5 mg/kg at 1700 hr; Day 2: 5 mg/kg at 1000 hr, 12.5 mg/kg at 1700 hr; Day 3: 15 mg/kg at 1000 hr; Day 4: 17.5 mg/kg at 1000 hr; Day 5: 5 mg/kg at 1000 hr, 17.5 mg/kg at 1200 hr.\n(§3) The withdrawal signs measured were: (1) abnormal posturing (an animal presses his abdomen and lower jaw against the floor of the cage); (2) exploration (an animal circles around the cage, thrusting its head in several directions and examining its surroundings); (3) jumping; (4) cleaning (grooming); (5) rearing (an animal stands on its hindpaws with the forepaws off the ground).\nWithdrawal scores were measured by blinded observers in 10 minute blocks for 60 minutes immediately after naloxone precipitated withdrawal was initiated. […]"}, "[3]": {"experiment": "Spontaneous opioid withdrawal induced weight loss (Example 5)", "assay_type": "in vivo, rat", "details": "FIG. 9", "procedure": "Pathogen-free adult male Sprague-Dawley rats were used in all experiments. Rats (350-375 g at the time of arrival; Harlan Labs, Madison, Wis.) were housed in temperature (23±3° C.) and light (12:12 light:dark; lights on at 0700 hours) controlled rooms with standard rodent chow and water available ad libitum. All procedures were approved by the Institutional Animal Care and Use Committee at the University of Colorado at Boulder. Upon arrival male Sprague Dawley rats (300-400g) were housed individually and allowed to acclimatize to the animal colony telemetry room for one week. 5×90 minute sessions of handling by investigators were performed during the following week. Rats were anesthetized with isoflurane, and emitters for measuring core body temperature ([…], Sun River, Oreg.) were implanted in the peritoneal cavity. Gross motor movement was assessed by telemetry using the same emitters used for recording core body temperature. The emitter had to move for activity to be counted; thus, stationary movements such as grooming were not counted. Activity counts and core body temperature were measured every minute and movement averaged over 120 minutes was calculated (thereby smoothing the data). […] Body weights were recorded prior to each dosing session to allow for accurate dose calculations and to track the opioid induced weight loss (also occurred on days when no dosing was conducted)."}, "[4]": {"system": "naloxone precipitated withdrawal behaviors", "experiment": "Naloxone precipitated withdrawal behaviors (Example 4)", "assay_type": "in vivo, rat", "details": "for naloxone precipitated withdrawal behaviors: 60 minute observation period, FIG. 5", "procedure": "as §3\nWithdrawal scores were measured by blinded observers in 10 minute blocks for 60 minutes immediately after naloxone precipitated withdrawal was initiated. The observations were pooled from 1-10 minutes, 11-20 minutes, 21-30 minutes, 31-40 minutes, 41-50 minutes, 51-60 minutes for each individual rat after naloxone administration, giving six time points. The average score (for each time point) for all animals within an experimental group was reported as the “total withdrawal score” in FIGS. 2A-2D."}, "[5]": {"system": "dopamine release in the nucleus accumbens", "experiment": "In vivo microdialysis of nucleus accumbens dopamine (Example 3)", "design": "species or system rat", "procedure": "(§4) Dopamine release in the nucleus accumbens is thought to mediate the “reward” associated with drugs of abuse. […] After 3 baseline samples (20 minute inter-sample interval), morphine was administered to all rats. Dialysis samples were collected at 20 minute intervals for 180 minutes. To test behavioral withdrawal and reversal of morphine-induced dopamine, all rats were administered the opioid antagonist naloxone after the 60 minute sample time was completed."}, "[6]": {"system": "naloxone-induced behavioral withdrawal signs", "experiment": "Naloxone-induced withdrawal behavior during microdialysis (Example 3)", "assay_type": "in vivo, rat", "details": "7.5 mg/kg b.i.d. with morphine, vs PEG-saline vehicle and morphine, FIG. 4", "procedure": "as §4"}, "[7]": {"assay_type": "in vivo, rat", "details": "normalized to weight at start of morphine"}, "[8]": {"experiment": "Pharmacokinetics and tissue distribution of ibudilast in rat", "assay_type": "in vivo", "procedure": "Ibudilast pharmacokinetics and distribution into plasma, muscle, brain, and spinal cord were assessed as follows.\nas §1\nas §2, with “(23+/−3°” for “(23+/×3°”, “cycle.” for “cycle. Approval of the Institutional Animal Care and Use Committee at University of Colorado was obtained for all procedures.”\nCalibration standards in plasma were prepared by diluting each 0.5 mg/ml stock 1 in 100 into rat plasma to 5000 ng/ml (5 μl+495 μl), and then diluted further to 2.29 ng/ml by 3-fold serial dilution with plasma. Standards were used as low, mid and high QC samples, respectively.\nCalibration standards, QC and plasma study samples were prepared for HPLC injection by precipitating 25 μl of plasma with three volumes (75 μl) of ice cold acetonitrile containing 50 ng/ml diphenhydramine and 100 ng/ml dextromethorphan as the internal standards. Tissue study samples were prepared for HPLC injection by adding 1 μl of water per mg of tissue plus three volumes (relative to water) of ice cold acetonitrile containing 50 ng/ml diphenhydramine and 100 ng/ml dextromethorphan as the internal standards, then homogenizing with an electric homogenizer."}, "activated microglia": {"system": "activated microglia", "details": "dose-dependent; cited from earlier work"}, "[9]": {"experiment": "Previous range-finding tolerability studies, intraperitoneal", "assay_type": "in vivo", "details": "twice a day (bid) for multiple days"}, "[10]": {"system": "nucleotide phosphodiesterase (PDE)", "details": "non-selective PDE inhibitor; cited from earlier work"}, "[11]": {"details": "administered systemically; cited from earlier work"}, "[12]": {"system": "microglial activation marker CD11b", "experiment": "Brain immunohistochemistry and densitometry of microglial activation marker (Example 4)", "assay_type": "in vivo, rat", "details": "chronic morphine administration, FIG. 6", "method": "Immunoreactivity for OX-42 (antibody that recognizes complement type 3 receptors, e.g., CD11b) and/or glial fibrillary acidic protein (GFAP), microglial and astrocyte activation markers, respectively, were assessed. Sections (20 μm) were treated with 0.3% H2O2 in Tris-buffered saline (TBS) for 20 minutes at room temperature to suppress endogenous peroxidase activity. Sections were then incubated overnight at 4° C. in monoclonal mouse anti-rat OX-42 (1:100; Pharmingen, San Diego, Calif.) or monoclonal mouse anti-rat GFAP antibody (1:200; Chemicon, Temecula, Calif.) in TBS with 2% normal goat serum and 0.5% Triton-X-100. Subsequently, sections were incubated with the appropriate secondary biotinylated antibodies (1:400; Jackson ImmunoResearch, West Grove, Pa.) for 2 hours at room temperature, incubated in avidin -biotin complex solution (ABC; 1:200; Vector Laboratories, Burlingame, Calif.) for 2 hours at room temperature, followed by reaction with 0.5 mg/ml 3,3′-diaminobenzidine tetrahydrochloride (DAB; Sigma). Finally, sections were dried, dehydrated, and coverslipped with Permount. Staining was evaluated by light microscopy. Densitometry of immunohistochemical staining was subsequently evaluated using computer software (NIH image)."}, "interleukin-1 mRNA": {"system": "interleukin-1 mRNA", "experiment": "mRNA analysis of brain nuclei by real-time PCR (Example 4)", "assay_type": "in vivo, rat", "details": "morphine; dorsal and ventral periaqueductal grey region, FIG. 8", "method": "Following scoring of withdrawal behaviors animals received an intraperitoneal injection of 0.8 ml of 50 mg/ml sodium pentobarbital, and once anesthetized, animals were transcardially perfused. Half of each treatment group were perfused with saline and half with 4% paraformaldehyde. Spinal cord and brains were collected (saline perfusion for protein and mRNA quantification and paraformaldehyde perfusion for immunohistochemistry). Samples collected from saline perfused animals were flash frozen in liquid nitrogen and stored at −80° C. Paraformaldehyde perfused samples were stored in 4% paraformaldehyde for 48 hours and then transferred to 30% sucrose (0.1% azide) until tissue sectioning.\nAmplification of cDNA was performed using the [sequence] […] Linearity and efficiency of PCR amplification were assessed using standard curves generated by increasing amounts of cDNA. SYBR green l fluorescence (PCR product formation) was monitored in real time using the MYIQ single color real-time PCR detection system (Bio-Rad). […] Linearity and efficiency of PCR amplification were assessed using standard curves generated by increasing amounts of cDNA. SYBR green 1 fluorescence (PCR product formation) was monitored in real time using the MYIQ single color real-time PCR detection system (Bio-Rad). […]"}},
  "note": "Like-named read-outs stand apart in the source and are kept apart here.",
  "data": [
    {"smiles": "CC(C)C(=O)c1c(C(C)C)nn2ccccc12", "note": "[ibudilast, 2-methyl-1-(2-(1-methylethyl)pyrazolo(1,5-a)pyridin-3-yl)1-propanone]", "values": [
      {"measurement": "nucleus accumbens dopamine levels", "setting": "[1]; during naloxone precipitated opioid withdrawal, FIG. 10", "result": "reduced nucleus accumbens dopamine levels"},
      {"measurement": "nucleus accumbens dopamine levels", "setting": "[1]; following morphine administration, spontaneous opioid withdrawal, FIG. 11", "result": "also reduced nucleus accumbens dopamine levels"},
      {"measurement": "morphine induced nucleus accumbens dopamine increases", "setting": "[1]; morphine-dependent animals, during morphine administration and withdrawal, FIGS. 10 and 11", "result": "dramatically reduced morphine induced nucleus accumbens dopamine increases"},
      {"measurement": "total withdrawal score", "setting": "[2]; high dose 7.5 mg/kg i.p. bid, FIG. 2B, 2D", "result": "remarkably attenuated behavioral signs of withdrawal"},
      {"measurement": "total withdrawal score", "setting": "[2]; low dose 2.5 mg/kg i.p. bid, vs saline controls, FIG. 2C", "result": "no effect compared to saline controls"},
      {"measurement": "spontaneous opioid withdrawal induced weight loss", "setting": "[3]; higher dose (7.5 mg/kg twice daily)", "result": "substantially attenuated weight loss"},
      {"measurement": "spontaneous opioid withdrawal induced weight loss", "setting": "[3]; lower dose (2.5 mg/kg twice daily)", "result": "only a trend towards improved weight change"},
      {"measurement": "naloxone precipitated withdrawal behaviors", "setting": "[4]; 2.5 mg/kg", "result": "dramatic reduction of naloxone precipitated withdrawal behaviors"},
      {"measurement": "naloxone precipitated withdrawal behaviors", "setting": "[4]; 7.5 mg/kg", "result": "dramatic reduction of naloxone precipitated withdrawal behaviors"},
      {"measurement": "individual withdrawal behaviors", "setting": "[4]; on an individual behavior basis", "result": "reductions in all behaviors except for rearing, exploration and wet dog shakes"},
      {"measurement": "dopamine release into the nucleus accumbens in response to morphine", "setting": "[5]; 7.5 mg/kg b.i.d. co-administered with morphine across 5 days, FIG. 3", "result": "suppressed release of dopamine into the nucleus accumbens in response to morphine"},
      {"measurement": "basal levels of dopamine", "setting": "[5]; 7.5 mg/kg b.i.d., baseline samples", "result": "did not decrease basal levels of dopamine"},
      {"measurement": "naloxone-induced behavioral withdrawal signs", "setting": "[6]", "result": "suppressed naloxone-induced behavioral withdrawal signs"},
      {"measurement": "morphine induced weight loss on day 7", "setting": "[7]; 2.5 mg/kg ibudilast", "result": "16.6 ± 5.7", "unit": "g"},
      {"measurement": "morphine induced weight loss on day 7", "setting": "[7]; 7.5 mg/kg ibudilast", "result": "13.3 ± 7.1", "unit": "g"},
      {"measurement": "plasma concentration profile", "setting": "[8]; i.p. 5 mg/kg", "result": "declined from Cmax in a biphasic manner"},
      {"measurement": "tissue distribution", "setting": "[8]; i.p. 5 mg/kg, muscle, brain, spinal cord", "result": "well distributed to peripheral (e.g. muscle) and central (e.g. brain and spinal cord) tissues"},
      {"measurement": "Cmax", "setting": "[8]; male, Sprague-Dawley, plasma and CNS tissues (brain, spinal cord), ip, i.p. ~5 mg/kg, in 15% ethanol/saline, read-out: maximal concentration (Cmax) in plasma and CNS tissues", "result": "~1000", "unit": "ng/mL"},
      {"measurement": "half-life", "setting": "[8]; male, Sprague-Dawley, plasma, muscle, brain, spinal cord (all tissue compartments), ip, i.p. 5 mg/kg, all tissue compartments, read-out: elimination half-life", "result": "1.67 to 2.32", "unit": "h"},
      {"measurement": "production of inhibitory cytokine and neurotrophic factors", "setting": "activated microglia", "result": "enhanced the production of the inhibitory cytokine, IL-10, and additional neurotrophic factors"},
      {"measurement": "production of pro-inflammatory mediators", "setting": "activated microglia", "result": "suppressed the production of nitric oxide (NO), reactive oxygen species, interleukin (IL)-1β, IL-6, and tumor necrosis factor (TNF)"},
      {"measurement": "well-tolerated dose level", "setting": "[9]", "result": "up to 15 mg/kg"},
      {"measurement": "PDE inhibition profile", "setting": "[10]", "result": "most active against PDE-3, PDE-4, PDE-10, and PDE-11"},
      {"measurement": "blood-brain barrier passage", "setting": "[11]", "result": "crosses the blood-brain barrier when administered systemically"}
    ]},
    {"smiles": "CN1CC[C@]23c4c5ccc(O)c4O[C@H]2[C@@H](O)C=C[C@H]3[C@H]1C5", "note": "[morphine]", "values": [
      {"measurement": "CD11b staining after chronic administration", "setting": "[12]", "result": "visible upregulation of the microglia activation marker CD11b"},
      {"measurement": "interleukin-1 mRNA", "setting": "interleukin-1 mRNA", "result": "dramatic increase in interleukin-1 mRNA in the dorsal, but not the ventral periaqueductal grey region"}
    ]},
    {"smiles": "C=CCN1CC[C@]23c4c5ccc(O)c4O[C@H]2C(=O)CC[C@@]3(O)[C@H]1C5", "note": "[naloxone]", "values": [
      {"measurement": "morphine-induced dopamine release after opioid antagonist", "setting": "[5]; naloxone given after the 60 minute sample", "result": "reversed the morphine-induced dopamine release"}
    ]}
  ]
}
